Results on seven compounds are retold here after patent US20120316169A1, “2-ARYL-PROPIONAMIDE DERIVATIVES USEFUL AS BRADYKININ RECEPTOR ANTAGONISTS AND PHARMACEUTICAL COMPOSITIONS CONTAINING THEM” (DOMPÉ S.P.A., priority 2009, published 2012).

As usually defined, the IC50 is the concentration that gives 50% inhibition.

The structures appear in SMILES notation.

The assay deals with T1, BKB1 receptors (Homo sapiens, UniProt P46663).
T1 construct: Human (IMR-90) lung fibroblast cells expressing native B1 receptors; endogenous in cells; host or cells: IMR-90 human lung fibroblasts, interleukin-treated to up-regulate BKB1 receptors
T1 sequence (P46663 1-353): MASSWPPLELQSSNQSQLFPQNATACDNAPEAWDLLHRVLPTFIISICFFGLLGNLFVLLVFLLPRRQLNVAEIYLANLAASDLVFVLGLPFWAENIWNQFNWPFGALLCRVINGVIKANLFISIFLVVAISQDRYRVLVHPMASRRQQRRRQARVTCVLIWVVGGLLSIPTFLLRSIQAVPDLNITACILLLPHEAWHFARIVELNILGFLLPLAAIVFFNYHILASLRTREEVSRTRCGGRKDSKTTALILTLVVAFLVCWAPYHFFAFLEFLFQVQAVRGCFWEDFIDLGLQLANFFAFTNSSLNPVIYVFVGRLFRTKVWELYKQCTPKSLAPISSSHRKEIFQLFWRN
As to the kind of experiment: Calcium mobilization assay (FLIPR), B1 receptors in IMR-90 cells. It counts as cell-based. Conditions: Human IMR-90 lung fibroblast cells, up-regulated BKB1 receptors, agonist desArg10-kallidin (DAKD) 2 to 8 nM, calcium-dependent fluorescence. Here is the method: Calcium mobilization assay (FLIPR)—Human (IMR-90) lung fibroblast cells expressing native B1 receptors were harvested by trypsinization and seeded into black wall/clear bottom 96-well plates (Costar 3904; Corning Life Sciences, Acton, Mass.) at approximately 13,000 cells/well. After 1 day incubation, cells were treated with […] (0.35 ng/ml) in 10% FBS/MEM for 2 h to up-regulate BKB1 receptors. Induced cells were loaded with fluorescent calcium indicator by incubation with 2.3 μM Fluo-4/acetoxymethyl ester (Invitrogen) at 37° C. for 1.5 h in the presence of an anion transport inhibitor (2.5 mM probenecid in 1% FBS/MEM). Extracellular dye was removed by washing with assay buffer (2.5 mM probenecid, 0.1% BSA in 20 mM HEPES/HBSS without bicarbonate or phenol red, pH 7.5) and cell plates were kept in the dark until used. Test compounds were assayed at eight concentrations in triplicate. Addition of test compounds to the cell plate and incubation for 5 min at 35° C., followed by the addition of 2 to 8 nM final BK1 agonist desArg^10-kallidin (DAKD, 3×EC50) was carried out in the fluorimetric imaging plate reader (FLIPR; Molecular Devices) while continuously monitoring calcium-dependent fluorescence.
For the compound `CC(C(N)=O)c1cccc(Nc2ccc3c(c2)OC(F)(F)O3)c1` (stereo not shown) [Compound 76, 2-{3-[(2,2-difluoro-1,3-benzodioxol-5-yl)amino]phenyl}propanamide], the half-maximal inhibitory concentration (IC50) was 8.91 µM.

Turning to `CC(C(=O)Nc1cnccn1)c1ccc(N2CCCCC2)cc1` (stereo not shown) [Compound 77, 2-[4-(piperidin-1-yl)phenyl]-N-(pyrazin-2-yl)propanamide], the 50% inhibitory concentration (IC50) is 4.37 µM.

Take `CC(C(=O)Nn1cnnc1)c1ccc(NS(=O)(=O)c2ccc(Cl)cc2)cc1` (stereo not shown) [Compound 78, 2-(4-{[(4-chlorophenyl)sulfonyl]amino}phenyl)-N-(4H-1,2,4-triazol-4-yl) propanamide]: the half-inhibitory concentration (IC50) is 0.891 µM.

Turning to `CC(C(N)=O)c1ccc(Nc2ccc3c(c2)OC(F)(F)O3)cc1` (stereo not shown) [Compound 79, 2-{4-[(2,2-difluoro-1,3-benzodioxol-5-yl)amino]phenyl}propanamide], the 50% inhibitory concentration (IC50) is 1.35 µM.

On to `CC(C(=O)Nc1ccncc1)c1ccc(Nc2cnc3ccccc3c2)cc1` (stereo not shown) [Compound 80, N-(pyridin-4-yl)-2-[4-(quinolin-3-ylamino)phenyl]propanamide], for which the half-inhibitory concentration (IC50) is 5.25 µM.

`CC(C(=O)Nc1cc(Cl)cc(Cl)c1S(N)(=O)=O)c1ccc(OS(=O)(=O)c2ccccc2Cl)cc1` (stereo not shown) [Compound 81, 4-{1-[(3,5-dichloro-2-sulfamoylphenyl)amino]-1-oxopropan-2-yl}phenyl 2-chlorobenzenesulfonate]: the IC50 is 8.71 µM.

For `CC(C(=O)Nc1ccncc1)c1ccc(Nc2ccccc2-n2cccc2)cc1` (stereo not shown) [Compound 82], the IC50 was 5.75 µM.
